Measurements taken from patent US20260219274A1, “POLYOL SWEETNERS AND CARDIOVASCULAR AND THROMBOTIC EVENT RISK” (THE CLEVELAND CLINIC FOUNDATION, priority 2023, published 2026).

Columns and labels:
[1] = system: human platelet-rich plasma; assay: Aggregometry in platelet-rich plasma; format: cell-based; settings: PRP incubated with the polyol versus vehicle, submaximal agonist
Description: Aggregometry in platelet rich plasma (PRP) was performed as previously described^40 and outlined in supplemental methods.
Platelet rich plasma (PRP) was isolated as previously described.^5 Whole blood was drawn from healthy donors and anticoagulated with sodium citrate (0.109 M). PRP was prepared by centrifuging at 100×g for 10 min at 22° C. Platelet poor plasma (PPP) was obtained by additional centrifugation of the remaining blood samples at 11,000×g for 2 min. Next, platelets were counted with a hemocytometer and the platelet concentration adjusted to 2×10^8/mL using PPP. PRPs were then pre-incubated with xylitol (Catalogue #X3375-5G, Sigma, St. Louis, MO, USA) at indicated concentrations or vehicle (saline) for 30 min at 22° C. After exposure to xylitol or vehicle, PRPs were maintained in suspension with constant stirring (600 rpm) at 37° C. Subsequently, platelet aggregation was induced by adding the agonists ADP (up to 5 μM, Catalogue #384, Chronolog, Havertown, PA, US) or TRAP6 (TFLLR-NH2, up to 10 μM, Catalogue #464, Tocris, Bristol, UK). For all platelet aggregometry experiments, blood was always processed within approx. 30 minutes of collection, and isolated platelets were used within 120 minutes of isolation. When used, pairs of vehicle vs. xylitol incubated PRP were always incubated and analyzed together (beginning, middle, end of platelet prep use) and after 120 minutes post isolation, PRPs were not used anymore.
Platelet rich plasma (PRP) and platelet poor plasma (PPP) was prepared as previously described with sodium citrate (0.109 M) as anticoagulant^51. Platelets were counted and concentrations adjusted to 2×10^8/mL with PPP. PRPs were pre-incubated with erythritol (Catalogue #E7500, Sigma, St. Louis, MO, USA), glucose (Catalogue #G7021, Sigma, St. Louis, MO, USA) or 1,5-AHG (Catalogue #29874, Cayman Chemical, Ann Arbor, Michigan, USA) (at indicated concentrations) or vehicle (saline) for 30 min at 22° C. After pre-incubation PRPs were maintained in suspension with constant stirring (600 rpm) at 37° C. and platelet aggregation was initiated using ADP (up to 5 μM, Catalogue #384, Chronolog, Havertown, PA, US) or TRAP6 (TFLLR-NH2, up to […], Catalogue #464, Tocris, Bristol, UK).

[2] = system: stable subjects undergoing elective diagnostic cardiac evaluations (Discovery Cohort); settings: in vivo
Description: Our first study employed a Discovery Cohort, where we used untargeted metabolomics (semi-quantitative analyses) to analyze plasma samples from 1,157 stable subjects to identify circulating analytes whose levels were associated with future development of adverse cardiovascular events over an ensuing 3 year period. The Discovery Cohort included sequential stable patients (ages 18 years or above) undergoing elective diagnostic coronary angiography for risk evaluation at a quaternary referral center between 2001 and 2007 (GeneBank at the Cleveland Clinic; clinicaltrials.gov identifier: NCT00590200) with clinical and longitudinal outcomes.
In both, the Discovery and Validation Cohorts, Major Adverse Cardiovascular Events (MACE) were defined as death, nonfatal myocardial infarction, or nonfatal cerebrovascular accident (stroke) during follow-up. Adjudicated long term survival data were collected through medical records review and Social Security Death Index query. Cardiovascular disease (CVD) was indicated as presence of peripheral artery disease or coronary artery disease, indicated as any clinical history of myocardial infarction, coronary revascularization (including percutaneous coronary intervention, coronary artery bypass surgery), or angiographic evidence of significant stenosis (≥50%) in 1 or more major coronary arteries. Estimated glomerular filtration rate (eGFR) in both cohorts was calculated based on the recent Chronic Kidney Disease Epidemiology Collaboration 2021 CKD-EPI Creatinine equation.^37 Platelet-related hematology analyses were performed with an Advia 120 hematology analyzer (Siemens, New York, NY).^38 Use of anti-platelet agents (=1556) was defined as either aspirin or a P2Y12 agent or both. All observational studies in this example are reported in compliance with the STrengthening the Reporting of Observational studies in Epidemiology (STROBE)-Statement.^39 Information on gender of study participants of the Discovery and Validation Cohorts is reported in Table 1-3.
For untargeted mass spectrometry analyses, subject plasma samples were derivatized and run on GC-MS analyses as previously described.^19 Raw data files were processed using the metabolomics BinBase database.^45
Continuous variables are summarized as median (interquartile range [IQR]), and categorical variables are presented as %. Difference between groups (e.g. tertiles or quartiles) were examined using Kruskal Wallis test for continuous variables and chisq (χ^2) test for categorical variables. Kaplan-Meier analysis with Cox proportional-hazards regression was used for time-to-event analysis to determine hazard ratios (HR) and 95% confidence intervals (CI) for incident MACE. Adjustments included traditional cardiovascular risk factors (age, sex, diabetes mellitus, systolic blood pressure, low-density lipoprotein cholesterol levels, high-density lipoprotein cholesterol levels, triglyceride levels, smoking status) and high-sensitivity C-reactive protein (hsCRP). We confirmed that the proportionality hazards assumptions were met using the Schoenfeld residuals against the transformed time. Mann-Whitney U-test or Wilcoxon matched-pairs signed rank test were applied to continuous variables to examine differences between 2 groups. Kruskal-Wallis test with Dunn's post hoc test was used for pairwise multiple comparisons of ranked data. Two-way ANOVA with Šidák's multiple comparison post hoc test was used for multiple-group comparisons of aggregometry responses using different concentrations of agonists. For analysis of collagen-dependent platelet adhesion in whole blood, a two-way repeated measures ANOVA with Sidák's multiple comparison post hoc test was used. All reported measurements represent distinct samples. Data analyses were performed with R software (version 4.0.2) and GraphPad Prism software (version 9.1.2). A two-sided P<0.05 was considered statistically significant. […]

clinical = settings: both, human, in vivo
Description: (§1) This single center trial was approved by the Cleveland Clinic Institutional Review Board (clinicaltrials.gov identifier NCT04731363). Following subject consent (nonsmokers without CVD, hypertension, or diabetes), blood was drawn after overnight fast and 30 min following consumption of water containing 30 g of […] glucose (n=10, 30.1±11 years of age, 40% male), or erythritol (n=10, 30.5±8 years of age, 50% male), a quantity commonly found in erythritol-sweetened foods and the daily intake of some subjects based on 2013-2014 National Health and Nutrition Examination Survey (NHANES) data and FDA filings.(4,5).
(§2) Following erythritol consumption, postprandial circulating erythritol levels (assessed using stable-isotope-dilution liquid-chromatography tandem mass spectrometry (LC/MS/MS)3) were >1000-fold increased compared to baseline levels (median[inter quartile range], 6480[5930-7300]μM versus 3.75[3.35-3.87]μM, P<0.0001). In contrast, circulating erythritol levels remained similar before versus after glucose consumption (3.0[2.6-4.0]μM versus 2.9[2.7-3.8]μM, P=0.87; glucose levels before versus after 86.5(81.8-93.0) versus 127.0(122.3-132.3), P=0.002). […] In contrast, glucose consumption had no effect on platelet aggregation.

[3] = system: platelets of healthy volunteers; assay: Erythritol or glucose ingestion: platelet aggregation and granule release; format: in vivo, human
Description: as §1, §2

| SMILES | stimulus-dependent platelet aggregation response to ADP and TRAP6 [1] | association with cardiovascular event risks / MACE [2] | glucose levels (clinical) | glucose levels (clinical; 30 min) | platelet aggregation responses to ADP and TRAP6 after ingestion ([3]; 30 min after 30 g vs baseline) | stimulus-dependent release of alpha granule marker CXCL4 ([3]; TRAP6 (7.5 μM), ADP (2.0 μM), after ingestion) | stimulus-dependent release of dense granule marker serotonin ([3]; TRAP6 and ADP, after ingestion) |
| --- | --- | --- | --- | --- | --- | --- | --- |
| OC[C@H]1OC[C@H](O)[C@@H](O)[C@@H]1O [1,5-AHG, 1,5-anhydroglucitol, reference compound] | no effect | negatively associated | – | – | – | – | – |
| O=C[C@H](O)[C@@H](O)[C@H](O)[C@H](O)CO [glucose, reference compound] | no effect | – | 86.5(81.8-93.0) | 127.0(122.3-132.3) | no effect | no differences | no differences |
